Target: T1, MAGL (Homo sapiens, UniProt Q99685)
T1 sequence (Q99685 1-303): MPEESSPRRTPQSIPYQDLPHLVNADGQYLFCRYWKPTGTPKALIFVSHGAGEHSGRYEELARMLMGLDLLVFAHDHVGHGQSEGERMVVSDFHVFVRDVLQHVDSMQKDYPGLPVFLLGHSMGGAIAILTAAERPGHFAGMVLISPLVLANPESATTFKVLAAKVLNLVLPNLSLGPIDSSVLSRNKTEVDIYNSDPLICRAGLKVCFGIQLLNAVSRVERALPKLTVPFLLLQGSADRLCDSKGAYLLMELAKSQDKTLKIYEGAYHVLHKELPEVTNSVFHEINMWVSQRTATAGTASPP
Assay: 2-AG assay (MAGL inhibitory activity, hydrolysis of 2-arachidonoylglycerol to arachidonic acid followed by mass spectrometry)
Type: biochemical
Conditions: 8 μM 2-arachidonoylglycerol, 15 min pre-incubation, 30 min incubation at RT, RapidFire MS readout
In short: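 Arachidonic acid released from 8 μM 2-arachidonoylglycerol was quantified by online SPE triple-quadrupole MS (negative ESI, 303.1→259.1), normalised to d8-arachidonic acid internal standard. Reaction ran 30 min at RT after 15 min RT compound pre-incubation with […] MAGL in TRIS/EDTA/Tween-20 buffer, 2.5% DMSO.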

| SMILES | IC50 [nM] |
| --- | --- |
| O=C(N1CC2(CC(Cc3cnc(C(F)(F)F)cn3)C2)C1)N1CC2(CC(n3cnc(C4CC4)n3)C2)C1 [Example 193, [6-(3-cyclopropyl-1,2,4-triazol-1-yl)-2-azaspiro[3.3]heptan-2-yl]-[6-[[5-(trifluoromethyl)pyrazin-2-yl]methyl]-2-azaspiro[3.3]heptan-2-yl]methanone] | 0.3 |
| COC(=O)C(C)(C)Cc1cccc(OC2CN(C(=O)N3CC4(CC(n5cnc(C6CC6)n5)C4)C3)C2)c1 [Example 194, methyl 3-[3-[1-[6-(3-cyclopropyl-1,2,4-triazol-1-yl)-2-azaspiro[3.3]heptane-2-carbonyl]azetidin-3-yl]oxyphenyl]-2,2-dimethyl-propanoate] | 0.3 |
| O=C(N1CC2(CC(NS(=O)(=O)c3cccc(C(F)(F)F)c3)C2)C1)N1CC2(CC(n3cnc(C4CC4)n3)C2)C1 [Example 195, N-[2-[6-(3-cyclopropyl-1,2,4-triazol-1-yl)-2-azaspiro[3.3]heptane-2-carbonyl]-2-azaspiro[3.3]heptan-6-yl]-3-(trifluoromethyl)benzen esulfonamide] | 0.4 |
| O=C(N1CC2(CC(n3cnc(C4CC4)n3)C2)C1)N1CC2(CN(Cc3ccc(F)cc3C(F)(F)F)C2)C1 [Example 196, [6-(3-cyclopropyl-1,2,4-triazol-1-yl)-2-azaspiro[3.3]heptan-2-yl]-[6-[[4-fluoro-2-(trifluoromethyl)phenyl]methyl]-2,6-diazaspiro[3.3]heptan-2-yl]methanone] | 0.4 |
| O=C(N1CCC([C@H](c2ccc(F)cc2)c2nc(C3CC3)no2)CC1)N1CC2(CC(n3cnc(C4CC4)n3)C2)C1 [Example 197, [4-[(R)-(3-cyclopropyl-1,2,4-oxadiazol-5-yl)-(4-fluorophenyl)methyl]-1-piperidyl]-[6-(3-cyclopropyl-1,2,4-triazol-1-yl)-2-azaspiro[3.3]heptan-2-yl]methanone] | 0.4 |
| COC(=O)C(C)(C)c1cccc(OC2CN(C(=O)N3CC4(CC(n5cnc(C6CC6)n5)C4)C3)C2)c1 [Example 200, methyl 2-[3-[1-[6-(3-cyclopropyl-1,2,4-triazol-1-yl)-2-azaspiro[3.3]heptane-2-carbonyl]azetidin-3-yl]oxyphenyl]-2-methyl-propanoate] | 0.7 |
| O=C(N1CC(Oc2ccc(C(F)(F)F)cc2)C1)N1CC2(CC(n3cnc(C4CC4)n3)C2)C1 [Example 202, [6-(3-cyclopropyl-1,2,4-triazol-1-yl)-2-azaspiro[3.3]heptan-2-yl]-[3-[4-(trifluoromethyl)phenoxy]azetidin-1-yl]methanone] | 0.7 |
| CC(C)c1ncn(C2CC3(C2)CN(C(=O)N2CC4(CC(Cc5ccc(F)cc5F)C4)C2)C3)n1 [Example 203, [6-[(2,4-difluorophenyl)methyl]-2-azaspiro[3.3]heptan-2-yl]-[6-(3-isopropyl-1,2,4-triazol-1-yl)-2-azaspiro[3.3]heptan-2-yl]methanone] | 0.8 |
| O=C(N1CC(Oc2nccc(C3CC3)c2F)C1)N1CC2(CC(n3cnc(C4CC4)n3)C2)C1 [Example 204, [3-[(4-cyclopropyl-3-fluoro-2-pyridyl)oxy]azetidin-1-yl]-[6-(3-cyclopropyl-1,2,4-triazol-1-yl)-2-azaspiro[3.3]heptan-2-yl]methanone] | 0.8 |
| CS(=O)(=O)c1ccc(CC2CC3(C2)CN(C(=O)N2CC4(CC(n5cnc(C6CC6)n5)C4)C2)C3)cc1 [Example 205, [6-(3-cyclopropyl-1,2,4-triazol-1-yl)-2-azaspiro[3.3]heptan-2-yl]-[6-(4-mesylbenzyl)-2-azaspiro[3.3]heptan-2-yl]methanone] | 0.9 |
| O=C(N1CC(c2ccc(N3CC(O)(C(F)(F)F)C3)nc2)C1)N1CC2(CC(n3cnc(C4CC4)n3)C2)C1 [Example 206, [6-(3-cyclopropyl-1,2,4-triazol-1-yl)-2-azaspiro[3.3]heptan-2-yl]-[3-[6-[3-hydroxy-3-(trifluoromethyl)azetidin-1-yl]-3-pyridyl]azetidin-1-yl]methanone] | 0.9 |
| O=C(N1CCC(C(c2ccc(F)cc2)c2nc(C3CC3)no2)CC1)N1CC2(CC(n3cnc(C4CC4)n3)C2)C1 (stereo not drawn) [Example 207, [4-[(3-cyclopropyl-1,2,4-oxadiazol-5-yl)-(4-fluorophenyl)methyl]-1-piperidyl]-[6-(3-cyclopropyl-1,2,4-triazol-1-yl)-2-azaspiro[3.3]heptan-2-yl]methanone] | 1 |
| O=C(N1CC2(CC(n3cnc(C4CC4)n3)C2)C1)N1CC2(C1)CN(S(=O)(=O)c1cccc(C(F)(F)F)c1)C2 [Example 209, [6-(3-cyclopropyl-1,2,4-triazol-1-yl)-2-azaspiro[3.3]heptan-2-yl]-[2-[3-(trifluoromethyl)phenyl]sulfonyl-2,6-diazaspiro[3.3]heptan-6-yl]methanone] | 1.2 |
| O=C(N1CC(Oc2ccc(C3CC3)cn2)C1)N1CC2(CC(n3cnc(C4CC4)n3)C2)C1 [Example 210, [3-[(5-cyclopropyl-2-pyridyl)oxy]azetidin-1-yl]-[6-(3-cyclopropyl-1,2,4-triazol-1-yl)-2-azaspiro[3.3]heptan-2-yl]methanone] | 1.3 |
| O=C(N1CC2(CC(n3cnc(C4CC4)n3)C2)C1)N1CC2(C1)CN(S(=O)(=O)c1ccc(F)cc1C(F)(F)F)C2 [Example 211, (6-(3-cyclopropyl-1H-1,2,4-triazol-1-yl)-2-azaspiro[3.3]heptan-2-yl)(6-((4-fluoro-2-(trifluoromethyl)phenyl)sulfonyl)-2,6-diazaspiro[3.3]heptan-2-yl)methanone] | 1.4 |
| O=C(N1CC2(CC(n3cnc(C4CC4)n3)C2)C1)N1CC2(C1)CN(S(=O)(=O)c1cc(F)cc(F)c1)C2 [Example 213, [6-(3-cyclopropyl-1,2,4-triazol-1-yl)-2-azaspiro[3.3]heptan-2-yl]-[2-(3,5-difluorophenyl)sulfonyl-2,6-diazaspiro[3.3]heptan-6-yl]methanone] | 1.6 |
| O=C(N1CC2(CC(Cc3ccc(F)cn3)C2)C1)N1CC2(CC(n3cnc(C4CC4)n3)C2)C1 [Example 217, [6-(3-cyclopropyl-1,2,4-triazol-1-yl)-2-azaspiro[3.3]heptan-2-yl]-[6-[(5-fluoro-2-pyridyl)methyl]-2-azaspiro[3.3]heptan-2-yl]methanone] | 2 |
| COc1c(OC2CN(C(=O)N3CC4(CC(n5cnc(C6CC6)n5)C4)C3)C2)cccc1C(F)(F)F [Example 219, (6-(3-cyclopropyl-1H-1,2,4-triazol-1-yl)-2-azaspiro[3.3]heptan-2-yl)(3-(2-methoxy-3-(trifluoromethyl)phenoxy)azetidin-1-yl)methanone] | 2.2 |
| O=C(N1CC2(CC(n3cnc(C4CC4)n3)C2)C1)N1CC2(CN(Cc3cc(F)cc(F)c3)C2)C1 [Example 221, [6-(3-cyclopropyl-1,2,4-triazol-1-yl)-2-azaspiro[3.3]heptan-2-yl]-[6-[(3,5-difluorophenyl)methyl]-2,6-diazaspiro[3.3]heptan-2-yl]methanone] | 2.5 |

More lines, in order of falling IC50, values ahead:

| IC50 [nM] | SMILES |
| --- | --- |
| 2.1 | Cc1cn(C2CC3(C2)CN(C(=O)N2CC4(CC(Cc5ccc(F)cc5F)C4)C2)C3)cn1 [Example 218, [6-[(2,4-difluorophenyl)methyl]-2-azaspiro[3.3]heptan-2-yl]-[6-(4-methylimidazol-1-yl)-2-azaspiro[3.3]heptan-2-yl]methanone] |
| 2 | O=C(N1CC(c2ccc(N3CC[C@@](O)(C(F)(F)F)C3)nc2)C1)N1CC2(CC(n3cnc(C4CC4)n3)C2)C1 [Example 216] |
| 1.7 | CC(C)(C)CS(=O)(=O)NC1CC2(C1)CN(C(=O)N1CC3(CC(n4cnc(C5CC5)n4)C3)C1)C2 [Example 215, N-[2-[6-(3-cyclopropyl-1,2,4-triazol-1-yl)-2-azaspiro[3.3]heptane-2-carbonyl]-2-azaspiro[3.3]heptan-6-yl]-2,2-dimethyl-propane-1-sulfonamide] |
| 1.5 | O=C(N1CC(c2ccc(N3CCC(O)(C(F)(F)F)C3)nc2)C1)N1CC2(CC(n3cnc(C4CC4)n3)C2)C1 (stereo not drawn) [Example 212, [6-(3-cyclopropyl-1,2,4-triazol-1-yl)-2-azaspiro[3.3]heptan-2-yl]-[3-[6-[3-hydroxy-3-(trifluoromethyl)pyrrolidin-1-yl]-3-pyridyl]azetidin-1-yl]methanone] |
| 1.1 | O=C(N1CC(Oc2ccc(C3CC3)nc2F)C1)N1CC2(CC(n3cnc(C4CC4)n3)C2)C1 [Example 208, [3-[(6-cyclopropyl-2-fluoro-3-pyridyl)oxy]azetidin-1-yl]-[6-(3-cyclopropyl-1,2,4-triazol-1-yl)-2-azaspiro[3.3]heptan-2-yl]methanone] |
| 0.7 | O=C(N1CC2(CC(n3cnc(C4CC4)n3)C2)C1)N1CC2(CN(Cc3ccc(F)cc3Cl)C2)C1 [Example 201, (6-(2-chloro-4-fluorobenzyl)-2,6-diazaspiro[3.3]heptan-2-yl)(6-(3-cyclopropyl-1H-1,2,4-triazol-1-yl)-2-azaspiro[3.3]heptan-2-yl)methanone] |
| 0.5 | O=C(N1CC(Oc2cccc(C3CC3)c2F)C1)N1CC2(CC(n3cnc(C4CC4)n3)C2)C1 [Example 198, [3-(3-cyclopropyl-2-fluoro-phenoxy)azetidin-1-yl]-[6-(3-cyclopropyl-1,2,4-triazol-1-yl)-2-azaspiro[3.3]heptan-2-yl]methanone] |
| 0.5 | O=C(N1CC2(CC(Cc3ncc(F)cc3F)C2)C1)N1CC2(CC(n3cnc(C4CC4)n3)C2)C1 [Example 199, [6-(3-cyclopropyl-1,2,4-triazol-1-yl)-2-azaspiro[3.3]heptan-2-yl]-[6-[(3,5-difluoro-2-pyridyl)methyl]-2-azaspiro[3.3]heptan-2-yl]methanone] |
